Series [1] concerns the target Human β2-AR (Homo sapiens, UniProt P07550). The experiment in a line: CRE-luciferase reporter gene (CRE-LUC) assay, CHO cells expressing human β2-AR. For orientation: Reporter assays use an easily measured gene product as a stand-in for the process of interest.
Description: (§1) cAMP response element (CRE)-luciferase(LUC) reporter gene (CRE-LUC) assay. […] The transfected CHO cells were seeded at a density of 40,000/well in 96 well microtiter plates (Culturplate, Packard) and allowed to grow for 20 hours. After 20 hours, the cells were treated with varying drug concentrations (10^−11 to 10^−4 M) for 4 hours. Following drug exposures, the cells were lysed and luciferase activity measured using the LucLite® assay kit (Packard). Changes in light production were measured by a Topcount® luminometer (Packard).
Series [2] concerns the target Human β1-AR (Homo sapiens, UniProt P08588). Kind of series: CRE-luciferase reporter gene (CRE-LUC) assay, CHO cells expressing human β1-AR.
Description: as §1
Series [3] concerns the target T1, Human β3-AR (Homo sapiens, UniProt P13945). Kind of series: CRE-luciferase reporter gene (CRE-LUC) assay, CHO cells expressing human β3-AR.
Description: as §1
In series [4] the target is T2, human β3-Adrenoreceptor (Homo sapiens, UniProt P13945).
T2 construct: expressed in transfected cells
The experiment in a line: Radioligand competition binding, human β3 adrenoreceptor expressed in CHO cells ([125I]ICYP). The conditions noted are these: N = 3-9 (Table 5). (In general: In a radioligand displacement assay an active substance lowers the binding of a labelled ligand.)

In series [5] the target is T3, human β2 Adrenoreceptor (Homo sapiens, UniProt P07550).
T3 construct: expressed in transfected cells
The experiment in a line: Radioligand competition binding, human β2 adrenoreceptor expressed in CHO cells ([125I]ICYP). To be noted: CHO cells; [125I]ICYP; N = 3-9 (Table 5).

Series [6] concerns the target T1, Human β3-AR. The experiment in a line: cAMP radioimmunoassay (cAMP-RIA), CHO cells expressing human β3-AR. The class given is cell-based. Details: expressed in transfected cells. On the procedure:
cAMP Radioimmunoassay (CAMP-RIA Assay). […] The precipitated protein was dissolved in 0.1N NaOH.

Where [7] appears, read: percentage of maximal response of R-(−)-isoproterenol (Table 6 B).

Molecules are shown by their SMILES. Where a name gives a salt, the structure may show the parent alone.

For orientation: melting point means the temperature of the solid-liquid transition.

T1 sequence (P13945 whole entry): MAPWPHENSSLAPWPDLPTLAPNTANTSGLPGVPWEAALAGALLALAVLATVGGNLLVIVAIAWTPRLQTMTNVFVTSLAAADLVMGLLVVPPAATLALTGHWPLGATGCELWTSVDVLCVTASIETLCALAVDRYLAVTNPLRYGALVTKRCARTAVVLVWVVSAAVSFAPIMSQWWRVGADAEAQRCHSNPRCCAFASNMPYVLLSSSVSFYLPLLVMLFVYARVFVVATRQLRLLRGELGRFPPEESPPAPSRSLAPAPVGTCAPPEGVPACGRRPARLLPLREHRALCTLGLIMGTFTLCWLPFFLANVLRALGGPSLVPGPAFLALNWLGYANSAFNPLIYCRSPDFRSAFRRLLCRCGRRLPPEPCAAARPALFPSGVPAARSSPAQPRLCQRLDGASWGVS
Sequence of Human β2-AR (P07550 whole entry): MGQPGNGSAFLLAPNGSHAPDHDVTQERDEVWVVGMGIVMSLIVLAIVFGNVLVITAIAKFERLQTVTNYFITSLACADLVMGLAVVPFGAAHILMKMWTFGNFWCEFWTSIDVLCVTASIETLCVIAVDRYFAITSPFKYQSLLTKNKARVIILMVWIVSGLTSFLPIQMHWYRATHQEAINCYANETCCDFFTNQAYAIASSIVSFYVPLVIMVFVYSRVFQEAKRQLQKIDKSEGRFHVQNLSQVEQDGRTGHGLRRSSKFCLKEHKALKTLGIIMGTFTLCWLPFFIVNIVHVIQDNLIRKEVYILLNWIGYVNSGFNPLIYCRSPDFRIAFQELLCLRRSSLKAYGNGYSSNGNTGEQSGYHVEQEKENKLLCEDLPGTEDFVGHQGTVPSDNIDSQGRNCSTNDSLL
T3 sequence (P07550 whole entry): as above
Sequence of Human β1-AR (P08588 whole entry): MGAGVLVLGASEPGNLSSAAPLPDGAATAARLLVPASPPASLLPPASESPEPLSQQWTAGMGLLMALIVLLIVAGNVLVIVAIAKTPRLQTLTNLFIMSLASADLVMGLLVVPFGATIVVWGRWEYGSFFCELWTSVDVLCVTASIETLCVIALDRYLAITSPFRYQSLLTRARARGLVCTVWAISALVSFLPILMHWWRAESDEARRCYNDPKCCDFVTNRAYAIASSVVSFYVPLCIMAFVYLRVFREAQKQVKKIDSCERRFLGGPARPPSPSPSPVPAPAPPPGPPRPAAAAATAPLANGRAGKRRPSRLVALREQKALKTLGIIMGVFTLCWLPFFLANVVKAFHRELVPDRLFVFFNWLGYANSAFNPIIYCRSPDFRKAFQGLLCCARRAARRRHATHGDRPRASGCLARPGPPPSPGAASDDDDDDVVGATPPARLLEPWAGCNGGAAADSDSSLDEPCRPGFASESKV
T2 sequence (P13945 whole entry): as the sequence (P13945 whole entry) above

Consider `COc1c(I)cc(CC2NCCc3cc(O)ccc32)cc1I` (centres unmarked) [6-Monophenolic TMQ analog (A-4)], for which the figures for the EC50 in series [1], in series [2] and in series [3] were 229 nM, 1950 nM and 35.5 nM, respectively.

Regarding `COc1cc2c(cc1OC)C(Cc1cc(I)c(NC(C)=O)c(I)c1)NCC2` (centres unmarked) (as salt: hydrochloride) [6,7-Dimethoxy-acetamidoDITMQ, 1-(4-Acetamido-3,5-diiodobenzyl)-6,7-dimethoxy-1,2,3,4-tetrahydroisoquinoline Hydrochloride], the melting point is 196 to 200 °C (dec.).

Take `COc1c(I)cc(CC2NCCc3nc(N)sc32)cc1I.Cl.Cl` (centres unmarked) [9 (B-28), 2-Amino-4-(3′,5′-diiodo-4′-methoxyphenylmethyl)-4,5,6,7-tetrahydrothiazolo[5,4-c]pyridine Dihydrochloride]: the “I.A. ± SEM, Human β2-AR, CRE-LUC assay” value in series [1] (setting [7]) was under 15%. Moreover, the “pKi ± SEM, Human β3-AR” value in series [4] came out at 5.83 ± 0.15. The “pKi ± SEM, Human β2-AR” value in series [5] stood at 6.37 ± 0.08. The EC50 in series [6] (CHO cells, N.A. = Not active at 100 μM, N = 4-12, read-out: pKact ± SEM, Human β3-AR, cAMP-RIA assay (converted)) was 112 nM; in series [3], 195 nM. Besides, in series [6] (percentage of maximal response of R-(−)-isoproterenol (100%)), the “I.A., Human β3-AR, cAMP-RIA assay” value is 67 ± 3%. Moreover, the “I.A., Human β3-AR, CRE-LUC assay” value in series [3] (setting [7]) is given as 62 ± 3%.

Values taken from patent publication US20050096347A1, “Beta3-Adrenoreceptor agonists, agonist compositions and methods of using” (Molecular Design International, Inc., priority 1997, published 2005).
